Assay results published in patent US10093630B2, “Pyrazole compounds and methods of making and using same” (ABIDE THERAPEUTICS, INC., priority 2014, dated 2018).
Like-named read-outs stand apart in the source and are kept apart here.

Tests used:
Experiment in all cases: In vitro competitive activity-based protein profiling (gel-based, FP-Rh or HT-01 probe)
Assay type in all cases: biochemical
ABHD6 = biological target: T1, ABHD6 (Mus musculus, UniProt Q8R2Y0); details: for inhibition at 1 µM: 1 μM inhibitor, read-out: % Inhibition at 1 μM, C = ABHD6; for IC50: mouse brain membrane fraction or cell lysates, 30 min preincubation at 37° C., read-out: Mouse (IC50 value, nM) ABHD6; for inhibition at 10 µM: 10 μM inhibitor, read-out: % Inhibition at 10 μM, C = ABHD6
T1 construct: Proteomes (mouse brain membrane fraction or cell lysates); from tissue; host or cells: mouse brain membrane fraction (or cell lysates, not specified)
T1 sequence (Q8R2Y0 1-336): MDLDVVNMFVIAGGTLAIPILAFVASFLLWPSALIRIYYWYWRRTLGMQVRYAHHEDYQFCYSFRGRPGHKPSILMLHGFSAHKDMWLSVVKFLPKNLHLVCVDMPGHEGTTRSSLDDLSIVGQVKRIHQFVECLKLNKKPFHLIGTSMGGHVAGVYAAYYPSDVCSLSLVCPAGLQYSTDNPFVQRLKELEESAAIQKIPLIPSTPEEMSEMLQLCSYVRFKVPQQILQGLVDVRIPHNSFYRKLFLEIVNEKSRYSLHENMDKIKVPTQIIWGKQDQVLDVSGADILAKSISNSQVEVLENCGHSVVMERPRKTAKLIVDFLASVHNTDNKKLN
How it was run: (§1)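 Gel-based read-out: fluorescent band intensity after SDS-PAGE reflected remaining hydrolase activity. Inhibitors were preincubated 30 min at 37° C with 1.0 mg/mL mouse brain membrane or lysate proteome before a further 30 min at 37° C with FP-Rh or HT-01 probe.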

PLA2G7 = biological target: T2, PLA2G7 (Mus musculus, UniProt Q60963); details: for inhibition at 1 µM: 1 μM inhibitor, read-out: % Inhibition at 1 μM, D = PLA2G7; for IC50: mouse brain membrane fraction or cell lysates, 30 min preincubation at 37° C.; for inhibition at 10 µM: 10 μM inhibitor, read-out: % Inhibition at 10 μM, D = PLA2G7
T2 construct: Proteomes (mouse brain membrane fraction or cell lysates); from tissue; host or cells: mouse brain membrane fraction (or cell lysates, not specified)
T2 sequence (Q60963 22-440): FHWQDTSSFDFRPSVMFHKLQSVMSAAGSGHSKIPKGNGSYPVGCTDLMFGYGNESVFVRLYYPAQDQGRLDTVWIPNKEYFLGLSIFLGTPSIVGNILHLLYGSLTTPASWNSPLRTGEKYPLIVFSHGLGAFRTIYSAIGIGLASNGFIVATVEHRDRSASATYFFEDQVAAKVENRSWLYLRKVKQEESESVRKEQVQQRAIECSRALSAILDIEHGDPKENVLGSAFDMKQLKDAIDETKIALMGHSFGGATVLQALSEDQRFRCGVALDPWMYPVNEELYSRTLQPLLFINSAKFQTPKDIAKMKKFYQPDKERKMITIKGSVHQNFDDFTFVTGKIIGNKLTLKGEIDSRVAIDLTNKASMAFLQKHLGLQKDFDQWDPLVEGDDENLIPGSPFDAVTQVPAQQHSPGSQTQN
How it was run: as §1

MAGL = biological target: T3, MAGL (Mus musculus, UniProt O35678); details: for inhibition at 1 µM: 1 μM inhibitor; for IC50: mouse brain membrane fraction or cell lysates, 30 min preincubation at 37° C., read-out: Mouse (IC50 value, nM) MAGL; for inhibition at 10 µM: 10 μM inhibitor
T3 construct: Proteomes (mouse brain membrane fraction or cell lysates); from tissue; host or cells: mouse brain membrane fraction (or cell lysates, not specified)
T3 sequence (O35678 1-303): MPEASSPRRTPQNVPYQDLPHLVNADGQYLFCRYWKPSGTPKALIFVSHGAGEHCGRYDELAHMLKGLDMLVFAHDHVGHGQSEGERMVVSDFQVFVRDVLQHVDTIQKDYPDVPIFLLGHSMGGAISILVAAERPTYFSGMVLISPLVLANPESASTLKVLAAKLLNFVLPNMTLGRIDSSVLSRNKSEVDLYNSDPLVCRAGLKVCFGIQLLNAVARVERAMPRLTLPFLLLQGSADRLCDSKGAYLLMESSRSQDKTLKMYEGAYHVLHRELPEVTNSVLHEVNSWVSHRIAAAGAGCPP
How it was run: as §1

FAAH = biological target: T4, FAAH (Mus musculus, UniProt O08914); details: for inhibition at 1 µM: 1 μM inhibitor, read-out: % Inhibition at 1 μM, B = FAAH; for IC50: mouse brain membrane fraction or cell lysates, 30 min preincubation at 37° C., read-out: Mouse (IC50 value, nM) FAAH; for inhibition at 10 µM: 10 μM inhibitor, read-out: % Inhibition at 10 μM, B = FAAH
T4 construct: Proteomes (mouse brain membrane fraction or cell lysates); from tissue; host or cells: mouse brain membrane fraction (or cell lysates, not specified)
T4 sequence (O08914 1-579): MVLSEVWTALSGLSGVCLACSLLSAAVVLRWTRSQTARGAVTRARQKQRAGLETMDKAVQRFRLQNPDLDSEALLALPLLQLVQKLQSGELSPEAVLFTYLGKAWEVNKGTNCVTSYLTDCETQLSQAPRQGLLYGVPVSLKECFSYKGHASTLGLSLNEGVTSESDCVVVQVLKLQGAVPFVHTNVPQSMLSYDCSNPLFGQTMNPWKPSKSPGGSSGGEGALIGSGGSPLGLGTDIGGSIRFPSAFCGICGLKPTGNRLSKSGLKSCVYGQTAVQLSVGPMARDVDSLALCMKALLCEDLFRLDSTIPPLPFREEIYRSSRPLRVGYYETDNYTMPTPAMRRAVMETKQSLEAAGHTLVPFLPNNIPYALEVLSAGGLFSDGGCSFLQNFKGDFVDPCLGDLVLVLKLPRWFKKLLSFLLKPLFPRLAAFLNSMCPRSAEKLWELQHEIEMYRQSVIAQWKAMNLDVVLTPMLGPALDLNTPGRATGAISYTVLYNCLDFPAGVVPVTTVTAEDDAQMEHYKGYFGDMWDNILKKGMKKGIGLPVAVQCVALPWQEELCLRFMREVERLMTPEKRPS
How it was run: as §1

Row | SMILES | inhibition at 1 µM (ABHD6) | inhibition at 1 µM (PLA2G7) | inhibition at 1 µM (MAGL) | inhibition at 1 µM (FAAH) | IC50 (ABHD6) | IC50 (PLA2G7) | IC50 (MAGL) | IC50 (FAAH) | inhibition at 1 µM (ABHD6; gel-based competitive ABPP) | inhibition at 1 µM (PLA2G7; gel-based competitive ABPP) | inhibition at 1 µM (MAGL; gel-based competitive ABPP) | inhibition at 1 µM (FAAH; gel-based competitive ABPP) | inhibition at 10 µM (ABHD6; gel-based competitive ABPP) | inhibition at 10 µM (PLA2G7; gel-based competitive ABPP) | inhibition at 10 µM (MAGL; gel-based competitive ABPP) | inhibition at 10 µM (FAAH; gel-based competitive ABPP)
1 | CCN(Cc1cccc(N2CCOCC2)c1)C(=O)n1cc(C#N)cn1 [Example 242, 4-Cyano-N-ethyl-N-(3-morpholinobenzyl)-1H-pyrazole-1-carboxamide] | 25 to 75% | < 25% | > 75% | > 75% | – | – | – | – | – | – | – | – | – | – | – | –
2 | CCN(Cc1cccc(Cl)c1)C(=O)n1cc(C#N)cn1 [Example 243, N-(3-chlorobenzyl)-4-cyano-N-ethyl-1H-pyrazole-1-carboxamide] | > 75% | < 25% | > 75% | > 75% | > 1000 nM | > 1000 nM | 100 to 1000 nM | < 100 nM | – | – | – | – | – | – | – | –
3 | CCN(Cc1cccc(Cl)c1)C(=O)n1cc(C(F)(F)F)cn1 [Example 244, N-(3-Chlorobenzyl)-N-ethyl-4-(trifluoromethyl)-1H-pyrazole-1-carboxamide] | 25 to 75% | < 25% | 25 to 75% | > 75% | > 1000 nM | > 1000 nM | > 1000 nM | < 100 nM | – | – | – | – | – | – | – | –
4 | CCN(Cc1cccc(Cl)c1)C(=O)n1cc(C)cn1 [Example 245, N-(3-chlorobenzyl)-N-ethyl-4-methyl-1H-pyrazole-1-carboxamide] | – | – | – | – | – | – | – | – | < 25% | < 25% | < 25% | < 25% | – | – | – | –
5 | CCN(Cc1cccc(C)c1)C(=O)n1cc(C#N)cn1 [Example 246, 4-Cyano-N-ethyl-N-(3-methylbenzyl)-1H-pyrazole-1-carboxamide] | – | – | – | – | 100 to 1000 nM | > 1000 nM | 100 to 1000 nM | < 100 nM | > 75% | < 25% | > 75% | > 75% | – | – | – | –
6 | CCN(Cc1cccc(C)c1)C(=O)n1cc(C(F)(F)F)cn1 [Example 247, N-Ethyl-N-(3-methylbenzyl)-4-(trifluoromethyl)-1H-pyrazole-1-carboxamide] | – | – | – | – | 100 to 1000 nM | > 1000 nM | 100 to 1000 nM | 100 to 1000 nM | 25 to 75% | < 25% | < 25% | > 75% | > 75% | < 25% | > 75% | > 75%
7 | CCN(Cc1cccc(C)c1)C(=O)n1cc(C)cn1 [Example 248, N-ethyl-4-methyl-N-(3-methylbenzyl)-1H-pyrazole-1-carboxamide] | – | – | – | – | – | – | – | – | < 25% | < 25% | < 25% | < 25% | – | – | – | –
8 | CCN(Cc1cccc(OC)c1)C(=O)n1cc(C#N)cn1 [Example 249, 4-Cyano-N-ethyl-N-(3-methoxybenzyl)-1H-pyrazole-1-carboxamide] | – | – | – | – | > 1000 nM | – | 100 to 1000 nM | < 100 nM | < 25% | < 25% | > 75% | > 75% | > 75% | 25 to 75% | > 75% | > 75%
9 | CCN(Cc1cccc(OC)c1)C(=O)n1cc(C(F)(F)F)cn1 [Example 250, N-Ethyl-N-(3-methoxybenzyl)-4-(trifluoromethyl)-1H-pyrazole-1-carboxamide] | – | – | – | – | > 1000 nM | – | > 1000 nM | < 100 nM | 25 to 75% | < 25% | > 75% | > 75% | > 75% | > 75% | > 75% | > 75%
10 | CCN(Cc1cccc(OC)c1)C(=O)n1cc(C)cn1 [Example 251, N-Ethyl-N-(3-methoxybenzyl)-4-methyl-1H-pyrazole-1-carboxamide] | – | – | – | – | – | – | – | – | < 25% | < 25% | < 25% | < 25% | – | – | – | –
11 | CCN(Cc1ccc(Cl)cc1)C(=O)n1cc(C#N)cn1 [Example 252, N-(4-Chlorobenzyl)-4-cyano-N-ethyl-1H-pyrazole-1-carboxamide] | – | – | – | – | > 1000 nM | – | 100 to 1000 nM | < 100 nM | < 25% | < 25% | > 75% | > 75% | > 75% | 25 to 75% | > 75% | > 75%
12 | CCN(Cc1ccc(Cl)cc1)C(=O)n1cc(C(F)(F)F)cn1 [Example 253, N-(4-Chlorobenzyl)-N-ethyl-4-(trifluoromethyl)-1H-pyrazole-1-carboxamide] | – | – | – | – | > 1000 nM | > 1000 nM | > 1000 nM | < 100 nM | < 25% | < 25% | 25 to 75% | > 75% | – | – | – | –
13 | CCN(Cc1ccc(Cl)cc1)C(=O)n1cc(C)cn1 [Example 254, N-(4-Chlorobenzyl)-N-ethyl-4-methyl-1H-pyrazole-1-carboxamide] | – | – | – | – | – | – | – | – | < 25% | < 25% | < 25% | < 25% | – | – | – | –
14 | CCN(Cc1ccc(C)cc1)C(=O)n1cc(C#N)cn1 [Example 255, 4-Cyano-N-ethyl-N-(4-methylbenzyl)-1H-pyrazole-1-carboxamide] | – | – | – | – | > 1000 nM | > 1000 nM | 100 to 1000 nM | < 100 nM | < 25% | < 25% | > 75% | > 75% | – | – | – | –
15 | CCN(Cc1ccc(C)cc1)C(=O)n1cc(C(F)(F)F)cn1 [Example 256, N-Ethyl-N-(4-methylbenzyl)-4-(trifluoromethyl)-1H-pyrazole-1-carboxamide] | – | – | – | – | > 1000 nM | > 1000 nM | > 1000 nM | < 100 nM | < 25% | < 25% | 25 to 75% | > 75% | – | – | – | –
16 | CCN(Cc1ccc(C)cc1)C(=O)n1cc(C)cn1 [Example 257, N-Ethyl-4-methyl-N-(4-methylbenzyl)-1H-pyrazole-1-carboxamide] | – | – | – | – | – | – | – | – | < 25% | < 25% | < 25% | < 25% | – | – | – | –
